Holding throughout (assay type): ADME, organism-based
Series [1] relates to Aspergillus niger. Nature of the series: Drug degradation in Aspergillus niger van Tieghem grown on sucrose-containing Czapek-Dox medium at 100 ppm after 7 days. Conditions: 168 h.
Series [2] deals with Aspergillus niger. Nature of the series: Drug degradation in Aspergillus niger van Tieghem grown on sucrose-containing Czapek-Dox medium at 20 ppm after 7 days. Conditions: 168 h.
Series [3] deals with Aspergillus niger. Nature of the series: Drug degradation in Aspergillus niger van Tieghem grown on Czapek-Dox medium at 20 ppm after 36 hr at 30 degC in presence of 0.5 to 2 g/l NaNO3.
Series [4] concerns Aspergillus niger. Nature of the series: Drug degradation in Aspergillus niger van Tieghem grown on Czapek-Dox medium at 20 ppm after 36 hr at 30 degC in presence of 0.01 g/l NaNO3.
Series [5] deals with Aspergillus niger. Nature of the series: Drug degradation in Aspergillus niger van Tieghem grown on Czapek-Dox medium at 20 ppm after 36 hr at 30 degC in presence of 1 g/l NaNO3.
The test system of series [6] is Aspergillus niger. Nature of the series: Drug degradation in Aspergillus niger van Tieghem at 20 ppm after 36 hr at 30 degC.

On to `CCNc1nc(NC(C)C)nc(SC)n1` [AMETRYNE], for which, in the series on Aspergillus niger [1], the Stability entry was “Stable”.

Regarding `CCCCOCN(C(=O)CCl)c1c(CC)cccc1CC` [BUTACHLOR], in the series with Aspergillus niger [2], the Stability entry is listed as “Unstable”.

Turning to `CCSC(=O)N1C=CC=CC=C1` [S-ETHYLAZEPINE-1-CARBOTHIOATE], the Stability entry in the series on Aspergillus niger [1] is “Unstable”.

With `CCN(CC)C(=O)SCc1ccc(Cl)cc1` [THIOBENCARB], the Stability result in the series with Aspergillus niger [3], in the series with Aspergillus niger [4], with Aspergillus niger [5] and in the series on Aspergillus niger [6] was “Unstable” throughout.

For the origin of these results see ChEMBL document CHEMBL3044688, “Degradation of the Herbicides Thiobencarb, Butachlor and Molinate by a Newly Isolated Aspergillus niger” (J Pestic Sci, 2004).
